Assay results: patent US9051351B2, “Hepatocyte growth factor mimics as therapeutic agents” (Washington State University, priority 2011, dated 2015)
“Also recorded” adds a separate entry of the source. Where a SMILES comes first, the peptide text is derived from it. [ ]: non-standard residue; d: D form. The star is where a group is joined. Hexanoyl = CCCCCC(=O)*; Ahx = NCCCCCC(=O)O

Assays:
[1] = Blood stability in heparinized rat blood; assay type: in vitro ADME; conditions: rat
Description: At the end of each incubation, 20 μL of […]

[2] = tested on: scopolamine treated rats; test: Morris water maze, scopolamine amnesia model; assay type: in vivo, rat; conditions: for mean latency to find the pedestal: Dihexa, Hinge 300 pmol, scopolamine 70 nmol
Description: Swim speed was determined from these values.

[3] = tested on: hippocampal neurons; test: H2O2 oxidative stress in dissociated hippocampal neurons; assay type: cell-based; conditions: 100 μM H2O2 24 hrs +/− HGF 5 ng/ml and/or Dihexa
Description: FIG. 47. […] Dissociated hippocampal neurons were treated with 100 μM H2O2 for 24 hrs+/−HGF at sub-threshold concentrations 5 ng/ml and or Dihexa at 2 different concentrations 10^−8M and […]. (*p<0.05,** p<0.01; Mean+/−SEM).

[4] = tested on: hippocampal neurons; test: Whole-cell recordings of mEPSCs in dissociated hippocampal neurons; assay type: cell-based, rat; conditions: 10^−12 M, 5 days
[5] = tested on: hippocampal neurons; test: Immunocytochemistry: percent correlation of spines to synaptic markers; assay type: cell-based, rat; conditions: 10^−12 M, 5 days
Description: (§1) Transfected neurons were treated, fixed and stained. Briefly, cells were permeablized with 0.1% Triton X-100 detergent (Bio-Rad; Hercules, Calif.) for 10 minutes. An 8% bovine serum albumin (Intergen Company; Burlington, Mass.) in PBS was used to prevent non-specific binding for one hour at R.T.; Primary antibody incubations were at a 1:2500 dilution (see below) in 1% BSA in PBS at 4° C. overnight. Secondary antibody, 1:3000 Alexafluor 488 goat-anti-mouse (Invitrogen: Carlsbad, Calif.) was applied for two hours at room temperature. Coverslips were mounted with ProLong Gold anti-fade reagent (Invitrogen; Carlsbad, Calif.) and all washes were done with PBS. Imaging and analysis were performed as described above. For presynaptic excitatory transmission the VGLUT1 (Synaptic Systems, Goettingen, Germany) marker (Balschun, Moechars et al.) was employed and for general presynaptic transmission synapsin1 (Synaptic Systems, Goettingen, Germany) (Ferreira and Rapoport 2002) was applied. A postsynaptic function was established by PSD-95 (Milipore, Billerica, Mass.) (El-Husseini, Schnell et al. 2000). In each instance the total number of spines was counted for the treatment groups, control, Nle1-AngIV and Dihexa, to ensure an active phenotype. The total number of actin enriched spines adjacent to VGLUT1 or Synapsin were counted and converted to a percentage as the percent correlation of treatment-induced spines to presynaptic markers is a strong indicator of ability to transmit excitatory signals.
as §1, with “fixed and stained as previously described in Chapter two. Briefly, cells” for “fixed and stained. Briefly, cells”, “enriched spines (red) adjacent to” for “enriched spines adjacent to”
Transfected neurons were treated and fixed as described above. Following fixation, cells were rinsed in PBS and permeabilized with 0.1% Triton® X-100 detergent (Bin-Rad; Hercules, Calif.), followed by two rinses in PBS and blocked with 8% bovine serum albumin (Intergen Company; Burlington, Mass.) in PBS for 1 h. […]

[6] = scopolamine icv, dihexa icv 1 nmol

## CCCCCC(=O)N[C@@H](Cc1ccc(O)cc1)C(=O)N[C@H](C(=O)NCCCCCC(N)=O)[C@@H](C)CC [Dihexa, N-hexanoic-Tyr-Ile-(6)-aminohexanoic amide] (Hexanoyl-Tyr-Ile-[Ahx]-NH2)
[1]
  stable in the blood: over 5 hours
[2]; day one of training, icv
  mean latency to find the pedestal: 115.2 s
[2]; dihexa at its highest dose, icv, ip and oral delivery
  time spent in the target quadrant, day 9 probe trial: increased the time spent in the target quadrant
[2]; dihexa ip 0.05, 0.25, 0.50 mg/kg
  time spent in the target quadrant, day 9 probe trial: Each of the treatment groups was different than the scopolamine
[2]; dihexa oral 1.25 and 2.0 mg/kg
  time spent in the target quadrant, day 9 probe trial: Both of the treatment groups were different than the scopolamine
[2]; final day of training (day 8), icv
  mean latency to find the pedestal: 62.3 s
[2]; fourth day of training, icv
  mean latency to find the pedestal: 63.0 s
[2]; i.c.v. injections, 8 days of training
  latency to escape, Morris water maze (FIG. 21): show rapid facilitation of the task
[2]; scopolamine icv, Dihexa ICV 10 pmoles (low dose)
  latency to find the pedestal in the water maze: not 10 pmoles
[2]; scopolamine icv, Dihexa ICV 100 pmoles (high dose), daily, 8 days
  latency to find the pedestal in the water maze: reversed scopolamine-dependent learning deficits; also recorded: completely overcome the scopolamine deficits
[2]; scopolamine icv, Dihexa oral 1.25 mg/kg/day (low dose)
  latency to find the pedestal in the water maze: partially reversed
[2]; scopolamine icv, Dihexa oral 2 mg/kg/day (high dose), 2 mg/kg/day
  latency to find the pedestal in the water maze: no different than controls; also recorded: completely overcome the scopolamine deficits
[2]; scopolamine icv, Dihexa oral 2 mg/kg/day (high dose), listed as dihexa, 2 mg/kg/day
  latency to find the pedestal in the water maze: indistinguishable from vehicle controls; also recorded: completely reversed the scopolamine-dependent learning deficit
[2]; scopolamine icv, dihexa icv 0.1 nmol
  latency to find the submerged platform in the Morris water maze: significantly improved performance when compared to the scopolamine group on days 5-8
[2]; [6]
  latency to find the submerged platform in the Morris water maze: significantly improved performance; also recorded: indistinguishable from the vehicle control group; also recorded: all time points for the 1 nmol dihexa group were different from the scopolamine group
  time spent in the target quadrant, day 9 probe trial: vehicle control groups were not different
[2]; scopolamine icv, dihexa ip 0.05 mg/kg
  latency to find the submerged platform in the Morris water maze: not different than the scopolamine group
[2]; scopolamine icv, dihexa ip 0.25 mg/kg
  latency to find the submerged platform in the Morris water maze: different than the scopolamine
[2]; scopolamine icv, dihexa ip 0.50 mg/kg, 0.5 mg/kg
  latency to find the submerged platform in the Morris water maze: indistinguishable from vehicle controls; also recorded: different than the scopolamine; also recorded: not different than the vehicle control group
[3]
  protection of neurons from oxidative stress: act synergistically to protect neurons; also recorded: protects neurons from oxidative stress
[4]
  frequency of AMPA-mediated mEPSCs: 4.82±0.34 Hz
  increase in mEPSC frequency over control: 1.6 fold
[5]
  percent correlation of treatment-induced spines to VGLUT1, Synapsin or PSD-95 vs control: did not differ from control treated neurons in the percent correlation
[5]; PSD-95 study
  Number of spines/50 μm: 43 spines/50 μm
[5]; Synapsin study
  Number of spines/50 μm: 37 spines/50 μm
[5]; VGLUT1 study
  Number of spines/50 μm: 44 spines/50 μm
